Data on 16 compounds can be found in patent publication US9598457B2, “Substituted nucleosides, nucleotides and analogs thereof” (Alios BioPharma, Inc., priority 2012, dated 2017).

The first data set relates to Huh-7 cells containing the self-replicating, subgenomic HCV replicon. Put plainly: HCV replicon assay (luciferase reporter). Conditions: Hepatitis C virus, Huh-7, 72 h. It counts as cell-based. Background: A replicon is a self-replicating genome or part of one, used to study replication in cells.
By EC50 is commonly meant the concentration needed to bring the measured effect to its halfway point. For `CCOc1nc(N)nc2c1ncn2[C@@H]1O[C@H](COP(=O)(N[C@@H](C)C(=O)OCC(C)(C)C)Oc2ccccc2Cl)[C@@H](F)[C@@]1(C)O` (stereo partly drawn) [Compound 2, (2S)-neopentyl 2-(((((2R,3R,4S,5R)-5-(2-amino-6-ethoxy-1H-purin-9(6H)-yl)-3-fluoro-4-hydroxy-4-methyltetrahydrofuran-2-yl)methoxy)(2-chlorophenoxy)phosphoryl)amino)propanoate], the EC50 was less than 1 µM.

`CCOc1nc(N)nc2c1ncn2[C@@H]1O[C@H](COP(=O)(N[C@@H](C)C(=O)OC2CCCCC2)Oc2ccccc2)[C@@H](F)[C@@]1(C)O` (stereo partly drawn) [Compound 5, (2S)-cyclohexyl 2-(((((2R,3R,4S,5R)-5-(2-amino-6-ethoxy-1H-purin-9(6H)-yl)-3-fluoro-4-hydroxy-4-methyltetrahydrofuran-2-yl)methoxy)(phenoxy)phosphoryl)amino)propanoate] showed an EC50 of less than 1 µM.

`C[C@H](NP(=O)(OC[C@H]1O[C@@H](n2cnc3c(=O)[nH]c(N)nc32)[C@](C)(O)[C@@H]1F)Oc1ccccc1)C(=O)OC1CCCCC1` (stereo partly drawn) [Compound 9, (2S)-cyclohexyl 2-(((((2R,3R,4S,5R)-5-(2-amino-6-oxo-1H-purin-9(6H)-yl)-3-fluoro-4-hydroxy-4-methyltetrahydrofuran-2-yl)methoxy)(phenoxy)phosphoryl)amino)propanoate] returned an EC50 of 1 to 10 µM.

In turn, `CCOc1nc(N)nc2c1ncn2[C@@H]1O[C@H](COP(=S)(N[C@@H](C)C(=O)OCC(C)(C)C)Oc2ccccc2)[C@@H](F)[C@@]1(C)O` (stereo partly shown) [Compound 13] returned an EC50 of 1 to 10 µM. For the compound `CCOc1nc(N)nc2c1ncn2[C@@H]1O[C@H](COP(=O)(N[C@@H](C)C(=O)OC(C)C)Oc2ccccc2)[C@@H](F)[C@@]1(C)O` (stereo partly shown) [Compound 10], the EC50 is less than 1 µM. The same measure, in the same setting: next, `CCOc1nc(N)nc2c1ncn2[C@@H]1O[C@H](COP(=S)(N[C@@H](C)C(=O)OC(C)C)Oc2ccccc2)[C@@H](F)[C@@]1(C)O` (stereo partly shown) [Compound 11]: 10 to 100 µM; `CCOc1nc(N)nc2c1ncn2[C@@H]1O[C@H](COP(=O)(N[C@@H](C)C(=O)OCC(C)(C)C)Oc2ccccc2)[C@@H](F)[C@@]1(C)O` (stereo partly drawn) [Compound 4, (2S)-neopentyl 2-(((((2R,3R,4S,5R)-5-(2-amino-6-ethoxy-1H-purin-9(6H)-yl)-3-fluoro-4-hydroxy-4-methyltetrahydrofuran-2-yl)methoxy)(phenoxy)phosphoryl)amino)propanoate]: less than 1 µM; `C[C@H](NP(=O)(OC[C@H]1O[C@@H](n2cnc3c(=O)[nH]c(N)nc32)[C@](C)(O)[C@@H]1F)Oc1ccc(F)c(Cl)c1)C(=O)OC1CCCCC1` (stereo partly drawn) [Compound 8, (2S)-cyclohexyl 2-(((((2R,3R,4S,5R)-5-(2-amino-6-oxo-1H-purin-9(6H)-yl)-3-fluoro-4-hydroxy-4-methyltetrahydrofuran-2-yl)methoxy)(3-chloro-4-fluorophenoxy)phosphoryl)amino)propanoate]: 10 to 100 µM. Same read-out and setting: next, `CCOc1nc(N)nc2c1ncn2[C@@H]1O[C@H](COP(=O)(N[C@@H](C)C(=O)OC2CCCCC2)Oc2ccc(F)c(Cl)c2)[C@@H](F)[C@@]1(C)O` (stereo partly drawn) [Compound 3, (2S)-cyclohexyl 2-(((((2R,3R,4S,5R)-5-(2-amino-6-ethoxy-1H-purin-9(6H)-yl)-3-fluoro-4-hydroxy-4-methyltetrahydrofuran-2-yl)methoxy)(3-chloro-4-fluorophenoxy)phosphoryl)amino)propanoate]: less than 1 µM; `CCOc1nc(N)nc2c1ncn2[C@@H]1O[C@H](COP(=S)(N[C@@H](C)C(=O)OC2CCCCC2)Oc2ccccc2)[C@@H](F)[C@@]1(C)O` (stereo partly shown) [Compound 12]: 1 to 10 µM; `C[C@H](NP(=O)(OC[C@H]1O[C@@H](n2cnc3c(=O)[nH]c(N)nc32)[C@](C)(O)[C@@H]1F)Oc1ccccc1Cl)C(=O)OCC(C)(C)C` (stereo partly drawn) [Compound 7, (2S)-neopentyl 2-(((((2R,3R,4S,5R)-5-(2-amino-6-oxo-1H-purin-9(6H)-yl)-3-fluoro-4-hydroxy-4-methyltetrahydrofuran-2-yl)methoxy)(2-chlorophenoxy)phosphoryl)amino)propanoate]: 10 to 100 µM.

The data set is the same for the next values; noted with them: Hepatitis C virus, Huh-7; HCV replicon cells, 72 h, Bright-Glo luciferase; read-out: EC50.
As for `C[C@@]1(O)[C@H](F)[C@@H](CO)O[C@H]1n1cnc2c(=O)[nH]c(N)nc21` [Compound 6, 2-amino-9-((2R,3S,4R,5R)-4-fluoro-3-hydroxy-5-(hydroxymethyl)-3-methyltetrahydrofuran-2-yl)-1H-purin-6(9H)-one], the EC50 fell in the range of 10 to 100 µM.

The next data set concerns the target NS5B570-Con1 (Delta-21) (Hepatitis C virus genotype 1b, UniProt Q9WMX2). Description: biochemical.
Conditions: not given
Details: species or system HCV Con-1 strain.
By IC50 is commonly meant the concentration that gives 50% inhibition. The compound `C[C@@]1(O)[C@H](F)[C@@H](COP(=O)(O)OP(=O)(O)OP(=O)(O)O)O[C@H]1n1cnc2c(=O)[nH]c(N)nc21` [Compound 15] came in with an IC50 of less than 1 µM.

A further data set has as its system mitochondrial protein synthesis (COX I relative to SDH A) in HepG2 cells.
Test: not given
Conditions: not given
For `Nc1ccn([C@H]2CC[C@@H](CO)O2)c(=O)n1` [ddC], the “inhibition of mitochondrial protein synthesis (FIGS. 11A-B)” value was “strongly inhibit mitochondrial protein synthesis”. Still for that read-out and setting: next, `Cc1cn([C@H]2C=C[C@@H](CO)O2)c(=O)[nH]c1=O` [d4T]: “found not to inhibit mitochondrial protein synthesis”.

The target of the next data set is human mitochondrial RNA polymerase (Homo sapiens, UniProt O00411). Put plainly: DdRp assay: incorporation of nucleotides by human mitochondrial RNA polymerase (HMRP). To be noted: 100 μM of each NTP, single turnover, 30° C., 1 minute; template for GTP analogs.
Sequence of human mitochondrial RNA polymerase (O00411 42-1230): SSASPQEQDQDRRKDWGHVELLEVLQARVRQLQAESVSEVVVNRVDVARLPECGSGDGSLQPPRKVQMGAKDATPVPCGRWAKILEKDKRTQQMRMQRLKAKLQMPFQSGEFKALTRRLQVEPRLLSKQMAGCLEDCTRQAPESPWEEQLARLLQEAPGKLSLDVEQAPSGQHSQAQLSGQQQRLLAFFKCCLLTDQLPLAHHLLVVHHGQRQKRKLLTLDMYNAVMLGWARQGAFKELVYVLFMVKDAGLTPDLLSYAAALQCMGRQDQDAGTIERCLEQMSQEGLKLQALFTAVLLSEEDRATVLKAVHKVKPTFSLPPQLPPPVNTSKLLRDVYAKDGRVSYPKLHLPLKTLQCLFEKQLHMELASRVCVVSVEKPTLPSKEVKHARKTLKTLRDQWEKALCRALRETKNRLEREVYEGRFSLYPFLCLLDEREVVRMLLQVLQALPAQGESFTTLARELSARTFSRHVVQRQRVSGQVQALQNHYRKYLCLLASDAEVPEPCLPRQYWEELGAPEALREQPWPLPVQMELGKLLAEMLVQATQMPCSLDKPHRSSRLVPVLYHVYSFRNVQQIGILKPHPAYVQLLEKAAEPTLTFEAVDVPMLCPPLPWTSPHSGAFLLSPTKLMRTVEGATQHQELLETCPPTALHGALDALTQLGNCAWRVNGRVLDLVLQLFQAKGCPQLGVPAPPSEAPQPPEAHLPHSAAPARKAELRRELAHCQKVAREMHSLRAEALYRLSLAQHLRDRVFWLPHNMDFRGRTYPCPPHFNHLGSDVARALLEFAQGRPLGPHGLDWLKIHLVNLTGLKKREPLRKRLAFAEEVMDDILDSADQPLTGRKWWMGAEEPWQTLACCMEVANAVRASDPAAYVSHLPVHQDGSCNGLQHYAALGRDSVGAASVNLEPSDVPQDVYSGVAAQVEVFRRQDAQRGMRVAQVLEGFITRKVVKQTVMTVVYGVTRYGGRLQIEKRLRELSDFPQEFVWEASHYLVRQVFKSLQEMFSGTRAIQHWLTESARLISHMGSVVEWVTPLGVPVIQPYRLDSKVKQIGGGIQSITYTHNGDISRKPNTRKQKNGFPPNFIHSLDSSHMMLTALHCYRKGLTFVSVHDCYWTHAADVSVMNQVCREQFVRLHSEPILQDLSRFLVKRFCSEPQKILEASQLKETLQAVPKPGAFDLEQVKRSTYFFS
As to `Nc1ncnc2c1ncn2[C@@H]1O[C@H](COP(=O)(O)OP(=O)(O)OP(=O)(O)O)[C@@H](O)[C@H]1O` [ATP], the “incorporation by human mitochondrial RNA polymerase (product band, FIG. 10)” value is “poor substrate for incorporation”.
